Columns and labels:
Format in all cases: physicochemical
[1] = stress stability testing, HPLC related substances and degradation products; parameters: HPLC related substance RRt 0.10 / HPLC related substance RRt 0.11 / HPLC related substance RRt 0.16 / HPLC related substance RRt 0.20 / HPLC related substance RRt 1.45 / HPLC related substance RRt 1.59 / HPLC related substance RRt 1.61 / HPLC related substance RRt 2.20 / HPLC related substance RRt 2.25: unit not given here
Protocol: Illustratively, it was tested under regular pharmaceutical tests such as stress condition test (Table 1) and was compared with chemical stability of the starting amorphous esomeprazole magnesium or esomeprazole Mg dihydrate form B (Table 2).

[2] = removal of residual solvents by drying (Comparative Example 2); conditions: drying at high temperatures
From the text: Further removing of residual solvents was studied on amorphous esomeprazole magnesium by drying.

[3] = physical (polymorphic) stability under stress conditions; conditions: 14 days 40° C./75% relative humidity, 7 days 60° C.
Protocol: In addition, also physical stability of esomeprazole magnesium dihydrate form A obtained according to the present invention was tested.

[4] = 40° C./75 RH, open dish, 14 days, open vial

With COc1ccc2[n-]c([S@@+]([O-])Cc3ncc(C)c(OC)c3C)nc2c1.COc1ccc2[n-]c([S@@+]([O-])Cc3ncc(C)c(OC)c3C)nc2c1.O.O.[Mg+2] as the compound, how does the “chemical stability compared among the three forms of esomeprazole magnesium” value ([1]; stress stability testing, all three forms compared) read?
The value was “chemically the most stable form”.

Which “HPLC - Related substances and degradation products: Sum” value (“HPLC … Sum” for short) [1, 4] does the source give for “magnesium bis(5-methoxy-2-[(S)-[(4-methoxy-3,5-dimethyl-2-pyridinyl)methyl]sulfinyl]-1H-benzimidazole) [Amorphous esomeprazole magnesium]” here?
Its value is 0.43.

And the “HPLC related substance OMP-benzimidazole (Ph. Eur. Imp. A)” value [1, 4]?
Its value is 0.04.

What about the “HPLC related substance RRt 0.10” value [1, 4] of the same compound?
The value was 0.04.

What about the “HPLC related substance RRt 0.11” value [1, 4] of the same compound?
The value was 0.09.

And the “HPLC related substance RRt 0.16” value [1, 4]?
Its value is 0.07.

What about the “HPLC related substance RRt 0.20” value [1, 4] of the same compound?
Its value is 0.04.

What about the “HPLC related substance RRt 1.45” value [1, 4] of the same compound?
The value was 0.06.

What about the “HPLC related substance RRt 2.20” value [1, 4] of the same compound?
Its value is 0.09.

And the “HPLC … Sum” value ([1]; 60° C., 7 days, vial)?
The value was 0.79.

And the “HPLC related substance OMP-N-oxide (Ph. Eur. Imp. E)” value ([1]; 60° C., 7 days, vial)?
The value was 0.03.

And the “HPLC related substance OMP-N-sufone (Ph. Eur. Imp. D)” value ([1]; 60° C., 7 days, vial)?
The value was 0.03.

And the “HPLC related substance OMP-benzimidazole (Ph. Eur. Imp. A)” value ([1]; 60° C., 7 days, vial)?
The value was 0.06.

What about the “HPLC related substance RRt 0.11” value ([1]; 60° C., 7 days, vial) of the same compound?
The value was 0.12.

And the “HPLC related substance RRt 0.16” value ([1]; 60° C., 7 days, vial)?
The value was 0.18.

What about the “HPLC related substance RRt 0.20” value ([1]; 60° C., 7 days, vial) of the same compound?
Its value is 0.06.

What about the “HPLC related substance RRt 1.45” value ([1]; 60° C., 7 days, vial) of the same compound?
The value was 0.15.

What about the “HPLC related substance RRt 2.20” value ([1]; 60° C., 7 days, vial) of the same compound?
Its value is 0.07.

And the “HPLC related substance RRt 2.25” value ([1]; 60° C., 7 days, vial)?
The value was 0.09.

And the “HPLC … Sum” value ([1]; Initial analysis)?
Its value is 0.10.

What about the “HPLC related substance RRt 0.16” value ([1]; Initial analysis) of the same compound?
Its value is 0.06.

And the “HPLC related substance RRt 1.45” value ([1]; Initial analysis)?
Its value is 0.04.

What about the “chemical stability on drying to remove residual solvents” value [2] of the same compound?
Its value is “accompanied by chemical decomposition”.

Which Chromatographic purity [1, 4] does the source give for “magnesium bis(5-methoxy-2-[(S)-[(4-methoxy-3,5-dimethyl-2-pyridinyl)methyl]sulfinyl]-1H-benzimidazole) [Esomeprazole magnesium dihydrate form A]” here?
Its Chromatographic purity is 99.85.

And the “HPLC … Sum” value [1, 4]?
Its value is “≦0.05”.

And the Chromatographic purity ([1]; 60° C., 7 days, vial)?
The Chromatographic purity was 99.82.

And the “HPLC … Sum” value ([1]; 60° C., 7 days, vial)?
Its value is “≦0.05”.

What about the Chromatographic purity ([1]; Initial analysis) of the same compound?
The Chromatographic purity was 99.85.

What about the “physical stability of the polymorphic form” value [3] of the same compound?
The value was “stable”.

With “magnesium bis(5-methoxy-2-[(S)-[(4-methoxy-3,5-dimethyl-2-pyridinyl)methyl]sulfinyl]-1H-benzimidazole) [Esomeprazole magnesium dihydrate form B]” as the compound, how does the “HPLC … Sum” value [1, 4] read?
The value was 0.14.

What about the “HPLC related substance RRt 1.59” value [1, 4] of the same compound?
Its value is 0.06.

What about the “HPLC related substance RRt 1.61” value [1, 4] of the same compound?
Its value is 0.06.

What about the “HPLC … Sum” value ([1]; 60° C., 7 days, vial) of the same compound?
Its value is 0.07.

And the “HPLC related substance Omeprazole-N-methyl” value ([1]; 60° C., 7 days, vial)?
Its value is 0.07.

What about the “HPLC … Sum” value ([1]; Initial analysis) of the same compound?
The value was less than 0.05.

Source: US8362259B2, “Process for the preparation of esomeprazole magnesium in a stable form” (Lek Pharmaceuticals, D.D., priority 2008, dated 2013)
